# Measured values as given in PubChem BioAssay (NCI).
#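 Step 1: Grow cells in 96-well plates. Step 2: Expose to compound for 48 hours at 5 concentrations. Step 3: Interpolate endpoints linearly; if unreached, use highest concentration. Definition used: TGI = concentration required for complete inhibition of growth.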
# Key:
# Test in all cases: inhibition of tumour cell growth, NCI panel, 48 h
# MDA-MB-231 breast = test system: MDA-MB-231 breast
# HOP-92 NSCLC = test system: HOP-92 NSCLC
# K-562 leukemia = test system: K-562 leukemia
# SK-MEL-28 melanoma = test system: SK-MEL-28 melanoma
# NCI/ADR-RES ovarian = test system: NCI/ADR-RES ovarian
# SN12C renal = test system: SN12C renal
# OVCAR-4 ovarian = test system: OVCAR-4 ovarian
# SF-268 CNS = test system: SF-268 CNS
# A498 renal = test system: A498 renal
# SNB-19 CNS = test system: SNB-19 CNS
# KM12 colon = test system: KM12 colon
# OVCAR-3 ovarian = test system: OVCAR-3 ovarian
# A549 NSCLC = test system: A549 NSCLC
# NCI-H460 lung = test system: NCI-H460 lung
# NCI-H23 lung = test system: NCI-H23 lung
# SF-539 CNS = test system: SF-539 CNS
# HOP-62 NSCLC = test system: HOP-62 NSCLC
# SR leukemia = test system: SR leukemia
# NCI-H522 lung = test system: NCI-H522 lung
# HCT-15 colon = test system: HCT-15 colon
# LOX IMVI melanoma = test system: LOX IMVI melanoma
# CAKI-1 renal = test system: CAKI-1 renal
# ACHN renal = test system: ACHN renal
# 786-0 renal = test system: 786-0 renal
# M14 melanoma = test system: M14 melanoma
# COLO 205 colon = test system: COLO 205 colon
# HCC-2998 colon = test system: HCC-2998 colon
# UACC-257 melanoma = test system: UACC-257 melanoma
# SNB-75 CNS = test system: SNB-75 CNS
# DU-145 prostate = test system: DU-145 prostate
# OVCAR-5 ovarian = test system: OVCAR-5 ovarian
# U251 CNS = test system: U251 CNS
# SW-620 colon = test system: SW-620 colon
# MDA-N = test system: MDA-N
# UO-31 renal = test system: UO-31 renal
# OVCAR-8 ovarian = test system: OVCAR-8 ovarian
# EKVX NSCLC = test system: EKVX NSCLC
# CCRF-CEM leukemia = test system: CCRF-CEM leukemia
# RXF 393 renal = test system: RXF 393 renal
# SK-OV-3 ovarian = test system: SK-OV-3 ovarian
# MOLT-4 leukemia = test system: MOLT-4 leukemia
# HCT-116 colon = test system: HCT-116 colon
# BT-549 breast = test system: BT-549 breast
# NCI-H226 lung = test system: NCI-H226 lung
# UACC-62 melanoma = test system: UACC-62 melanoma
# HL-60(TB) leukemia = test system: HL-60(TB) leukemia
# SF-295 CNS = test system: SF-295 CNS
# MALME-3M melanoma = test system: MALME-3M melanoma
# HT29 colon = test system: HT29 colon
# IGROV1 ovarian = test system: IGROV1 ovarian
# MCF7 breast = test system: MCF7 breast
# TK-10 renal = test system: TK-10 renal
# PC-3 prostate = test system: PC-3 prostate
# T-47D breast = test system: T-47D breast
# MDA-MB-435 = test system: MDA-MB-435
# SK-MEL-5 melanoma = test system: SK-MEL-5 melanoma
# RPMI-8226 leukemia = test system: RPMI-8226 leukemia
# HS 578T breast = test system: HS 578T breast
# SK-MEL-2 melanoma = test system: SK-MEL-2 melanoma
smiles,measurement,setting,value
CC(=O)Oc1ccc(OC(Oc2ccccc2)c2ccccc2)cc1 (stereo not given),TGI,MDA-MB-231 breast,48.8 µM
same,TGI,HOP-92 NSCLC,34.9 µM
same,TGI,K-562 leukemia,> 100 µM
same,TGI,SK-MEL-28 melanoma,69 µM
same,TGI,NCI/ADR-RES ovarian,90.3 µM
same,TGI,SN12C renal,29.2 µM
same,TGI,OVCAR-4 ovarian,> 100 µM
same,TGI,SF-268 CNS,> 100 µM
same,TGI,A498 renal,43.5 µM
same,TGI,SNB-19 CNS,77.5 µM
same,TGI,KM12 colon,58.7 µM
same,TGI,OVCAR-3 ovarian,49.5 µM
same,TGI,A549 NSCLC,> 100 µM
same,TGI,NCI-H460 lung,49.3 µM
same,TGI,NCI-H23 lung,47.6 µM
same,TGI,SF-539 CNS,49.8 µM
same,TGI,HOP-62 NSCLC,> 100 µM
same,TGI,SR leukemia,54.5 µM
same,TGI,NCI-H522 lung,96.4 µM
same,TGI,HCT-15 colon,> 100 µM
same,TGI,LOX IMVI melanoma,52.6 µM
same,TGI,CAKI-1 renal,55.7 µM
same,TGI,ACHN renal,72.1 µM
same,TGI,786-0 renal,57.8 µM
same,TGI,M14 melanoma,32.1 µM
same,TGI,COLO 205 colon,> 100 µM
same,TGI,HCC-2998 colon,39.7 µM
same,TGI,UACC-257 melanoma,64.5 µM
same,TGI,SNB-75 CNS,64.4 µM
same,TGI,DU-145 prostate,> 100 µM
same,TGI,OVCAR-5 ovarian,> 100 µM
same,TGI,U251 CNS,35.5 µM
same,TGI,SW-620 colon,> 100 µM
same,TGI,MDA-N,42.2 µM
same,TGI,UO-31 renal,88.9 µM
same,TGI,OVCAR-8 ovarian,> 100 µM
same,TGI,EKVX NSCLC,> 100 µM
same,TGI,CCRF-CEM leukemia,72.2 µM
same,TGI,RXF 393 renal,57.1 µM
same,TGI,SK-OV-3 ovarian,> 100 µM
same,TGI,MOLT-4 leukemia,> 100 µM
same,TGI,HCT-116 colon,59 µM
same,TGI,BT-549 breast,68 µM
same,TGI,NCI-H226 lung,69.7 µM
same,TGI,UACC-62 melanoma,44.6 µM
same,TGI,HL-60(TB) leukemia,41.8 µM
same,TGI,SF-295 CNS,> 100 µM
same,TGI,MALME-3M melanoma,52.9 µM
same,TGI,HT29 colon,87 µM
same,TGI,IGROV1 ovarian,> 100 µM
same,TGI,MCF7 breast,82.2 µM
same,TGI,TK-10 renal,> 100 µM
same,TGI,PC-3 prostate,> 100 µM
same,TGI,T-47D breast,> 100 µM
same,TGI,MDA-MB-435,94.3 µM
N#CSCC1COc2ccccc2O1 (stereo not given),TGI,MDA-MB-231 breast,> 10 µM
same,TGI,K-562 leukemia,> 10 µM
same,TGI,SK-MEL-28 melanoma,> 10 µM
same,TGI,NCI/ADR-RES ovarian,> 10 µM
same,TGI,SN12C renal,> 10 µM
same,TGI,OVCAR-4 ovarian,> 10 µM
same,TGI,SF-268 CNS,> 10 µM
same,TGI,A498 renal,> 10 µM
same,TGI,SNB-19 CNS,> 10 µM
same,TGI,KM12 colon,> 10 µM
same,TGI,OVCAR-3 ovarian,> 10 µM
same,TGI,A549 NSCLC,> 10 µM
same,TGI,NCI-H460 lung,> 10 µM
same,TGI,SK-MEL-5 melanoma,> 10 µM
same,TGI,NCI-H23 lung,> 10 µM
same,TGI,SF-539 CNS,> 10 µM
same,TGI,HOP-62 NSCLC,> 10 µM
same,TGI,SR leukemia,> 10 µM
same,TGI,NCI-H522 lung,7.05 µM
same,TGI,HCT-15 colon,> 10 µM
same,TGI,LOX IMVI melanoma,> 10 µM
same,TGI,CAKI-1 renal,> 10 µM
same,TGI,ACHN renal,> 10 µM
same,TGI,M14 melanoma,> 10 µM
same,TGI,RPMI-8226 leukemia,> 10 µM
same,TGI,COLO 205 colon,> 10 µM
same,TGI,HCC-2998 colon,> 10 µM
same,TGI,SNB-75 CNS,> 10 µM
same,TGI,DU-145 prostate,> 10 µM
same,TGI,OVCAR-5 ovarian,> 10 µM
same,TGI,U251 CNS,> 10 µM
same,TGI,SW-620 colon,> 10 µM
same,TGI,MDA-N,> 10 µM
same,TGI,UO-31 renal,> 10 µM
same,TGI,OVCAR-8 ovarian,> 10 µM
same,TGI,EKVX NSCLC,> 10 µM
same,TGI,CCRF-CEM leukemia,8.3 µM
same,TGI,RXF 393 renal,> 10 µM
same,TGI,SK-OV-3 ovarian,> 10 µM
same,TGI,MOLT-4 leukemia,> 10 µM
same,TGI,HCT-116 colon,> 10 µM
same,TGI,HS 578T breast,> 10 µM
same,TGI,NCI-H226 lung,> 10 µM
same,TGI,SK-MEL-2 melanoma,> 10 µM
same,TGI,UACC-62 melanoma,> 10 µM
same,TGI,HL-60(TB) leukemia,8.66 µM
same,TGI,SF-295 CNS,> 10 µM
same,TGI,MALME-3M melanoma,> 10 µM
same,TGI,HT29 colon,> 10 µM
same,TGI,IGROV1 ovarian,> 10 µM
same,TGI,MCF7 breast,> 10 µM
same,TGI,TK-10 renal,> 10 µM
same,TGI,PC-3 prostate,> 10 µM
same,TGI,T-47D breast,> 10 µM
same,TGI,MDA-MB-435,> 10 µM
